Measurements: US6762174B1 (priority 1998, dated 2004)
“And” between values parts separate entries of the source, which are not always exact repeats. Identical values can stand only once. Like-named read-outs stand apart in the source and are kept apart here.

Legend:
[1] = Paclitaxel toxicity, first study: body weight and mortality; assay type: in vivo, female non-tumor-bearing athymic (NCr-nu) mice; settings: BT 0 mg
Method: The effect of combining BT with paclitaxel (PAC, or TAXOL™) on the toxicity of paclitaxel was investigated. In a first study, groups of 10 female non-tumor-bearing athymic (NCr-nu) mice were administered paclitaxel i.v. at doses of 50 and 30 mg/kg/dose on a qld×5 schedule, which means once each day for five days. Paclitaxel (PAC) was in 12.5% cremophor/12.5% ethanol/75% saline alone, or in combination with 30 mg/kg BT (first dissolved in saline) and delivered as a single i.v. injection (0.1 cc/10 gm body weight). BT was also administered on a qld×5 schedule. Body weights were measured twice a week and survival data was recorded daily. The study was terminated on day 21.
Weight loss values reflect the lowest recorded weight, which was on day 7 for all groups. Importantly, there were fewer deaths when BT was coadministered with either 30 mg or 50 mg paclitaxel.
For the group receiving 50 mg paclitaxel, the survival difference was statistically significant (log rank=6.41, p=0.0113). There were 9 deaths on day 21 with 50 mg PAC alone, but only 2 deaths when 30 mg BT was administered with 50 mg PAC. When BT was coadministered with 30 mg PAC there was only 1 death on day 21, which was due not to toxicity, but to a technician error. By contrast, there were 2 toxic deaths with 30 mg PAC alone.

[2] = test system: human hematopoietic progenitor cells (CD34+ cells); experiment: Blood cell stimulation: CD34+ suspension culture, lineage marker ELISA; assay type: cell-based
Method: A 96-well-based suspension culture system (Warren et al, Stem Cells 13:167 (1995) for human hematopoietic progenitor cells was used to monitor the commitment and differentiation of CD34+ cells in vitro. Expression of maturation and lineage markers on the cells in culture were measured by ELISA. […] A combination of growth factors was added that stimulates the expression of the appropriate lineage markers. The culture consisted of: IMDM plus 15% FBS, 0.5 ng/ml IL-3, 20 ng/ml SCF, 1 unit/ml EPO, 1 ng/ml GCSF and the indicated concentrations of test compounds. The cells were then fixed with a glutaraldehyde-paraformaldehyde mixture, attaching the cells firmly to the plastic. An ELISA was performed (Warren et al, Stem Cells 13:167 (1995)), using appropriate primary antibodies directed against cell surface markers. The expression of three different lineage markers was measured: CD14 (monocyte), CD15 (neutrophil), and glycophorin A (erythroid).

[3] = test system: anti-Pn14 antibodies (Pn14-Tetanus Toxin antigen); design: species or system BALB/c female mice; settings: mouse, in vivo
MOPC-315 myeloma [4] = experiment: MOPC-315 Myeloma study #5: Melphalan + β-alethine ip day 9 (1 × 10^6 tumor cells); settings: for Tumor Size: 1.25 mg/kg mp; for Animals Surviving: mp 1.25 mg/kg
MOPC-315 myeloma [5] = experiment: MOPC-315 Myeloma study #4: Melphalan + β-alethine ip day 10 (1 × 10^6 tumor cells); settings: for Animals Surviving: mp 1.25 mg/kg; for Mean Tumor Size: mp alone
MOPC-315 myeloma [6] = experiment: MOPC-315 Myeloma study #6: β-alethine ip day 9, 10 or 11, mp ip day 10 (1 × 10^6 tumor cells); settings: for Animals Surviving: mp 1.25 mg/kg d 10 alone (20 mice)
[7] = Study 2: 1 ug/ml, 1700 cells per well
[8] = mp on day 10, BT none, 20 in group

C[C@@H]1C[C@H]2[C@@H]3CCC4=CC(=O)C=C[C@]4(C)[C@@]3(F)[C@@H](O)C[C@]2(C)[C@@]1(O)C(=O)CO [DEX., dexamethasone]
Percent Body Weight Loss From Day 0 (DEX.10 mg IP, day 1): 3.0%
Percent Body Weight Loss From Day 0 (DEX.10 mg IP, day 5): 4.6%
Percent Body Weight Loss From Day 0 (DEX.10 mg IP, day 6): 2.8%
Percent Body Weight Loss From Day 0 (DEX.10 mg IP, day 7): 3.4%
Percent Body Weight Loss From Day 0 (DEX.10 mg IP, day 8): 2.4%
Percent Body Weight Loss From Day 0 (DEX.10 mg IP, day 9): 3.6%
Percent Body Weight Loss From Day 0 (DEX.10 mg IP, day 10): 2.8%
Percent Body Weight Loss From Day 0 (DEX.10 mg IP, day 11): 1.3%
Percent Body Weight Loss From Day 0 (DEX.10 mg IP, day 12): 3.7%
Percent Body Weight Loss From Day 0 (DEX.10 mg IP, day 13): 2.1%
Percent Body Weight Loss From Day 0 (DEX.10 mg IP, day 21): 0.1%

CC(=O)O[C@H]1C(=O)[C@@]2(C)[C@H]([C@H](OC(=O)c3ccccc3)[C@]3(O)C[C@H](OC(=O)[C@H](O)[C@@H](NC(=O)c4ccccc4)c4ccccc4)C(C)=C1C3(C)C)[C@]1(OC(C)=O)CO[C@@H]1C[C@@H]2O [PAC, paclitaxel]
deaths ([1]; PAC 30 mg, Day 1): 0
mean weight ([1]; PAC 30 mg, Day 1): 19 gm
% weight change ([1]; PAC 30 mg, Day 7): −26.3%
deaths ([1]; PAC 30 mg, Day 7): 1
mean weight ([1]; PAC 30 mg, Day 7): 14 gm
% weight change ([1]; PAC 30 mg, Day 10): −21.1%
deaths ([1]; PAC 30 mg, Day 10): 2
mean weight ([1]; PAC 30 mg, Day 10): 15 gm
% weight change ([1]; PAC 30 mg, Day 14): −5.3%
deaths ([1]; PAC 30 mg, Day 14): 2
mean weight ([1]; PAC 30 mg, Day 14): 18 gm
% weight change ([1]; PAC 30 mg, Day 21): +21.1%
deaths ([1]; PAC 30 mg, Day 21): 2
mean weight ([1]; PAC 30 mg, Day 21): 23 gm
deaths (cummul.) ([1]; PAC 50 mg, Day 1): 0
mean weight ([1]; PAC 50 mg, Day 1): 19 gm
% weight change ([1]; PAC 50 mg, Day 7): −31.6%
deaths (cummul.) ([1]; PAC 50 mg, Day 7): 1
mean weight ([1]; PAC 50 mg, Day 7): 13 gm
% weight change ([1]; PAC 50 mg, Day 10): −36.8%
deaths (cummul.) ([1]; PAC 50 mg, Day 10): 9
mean weight ([1]; PAC 50 mg, Day 10): 12 gm
% weight change ([1]; PAC 50 mg, Day 14): −26.3%
deaths (cummul.) ([1]; PAC 50 mg, Day 14): 9
mean weight ([1]; PAC 50 mg, Day 14): 14 gm
% weight change ([1]; PAC 50 mg, Day 21): +10.5%
deaths (cummul.) ([1]; PAC 50 mg, Day 21): 9
mean weight ([1]; PAC 50 mg, Day 21): 21 gm
Percent Body Weight Loss From Day 0 (Taxol 40 mg/kg IV, day 1): 3.8%
Percent Body Weight Loss From Day 0 (Taxol 40 mg/kg IV, day 5): 10.7%
Percent Body Weight Loss From Day 0 (Taxol 40 mg/kg IV, day 6): 11.0%
Percent Body Weight Loss From Day 0 (Taxol 40 mg/kg IV, day 7): 15.2%
Percent Body Weight Loss From Day 0 (Taxol 40 mg/kg IV, day 8): 17.2%
Percent Body Weight Loss From Day 0 (Taxol 40 mg/kg IV, day 9): 17.5%
Percent Body Weight Loss From Day 0 (Taxol 40 mg/kg IV, day 10): 14.6%
Percent Body Weight Loss From Day 0 (Taxol 40 mg/kg IV, day 11): 11.8%
Percent Body Weight Loss From Day 0 (Taxol 40 mg/kg IV, day 12): 10.4%
Percent Body Weight Loss From Day 0 (Taxol 40 mg/kg IV, day 13): 7.8%
Percent Body Weight Loss From Day 0 (Taxol 40 mg/kg IV, day 21): −1.2%

O=C(CCNC(=O)OCc1ccccc1)NCCOP(=O)(O)O [Taurox-BOP, N-carboxybenzoxy-β-alanyl-ethanolamine phosphate]
Percent difference (relative to control), monocytes ([2]; Study 1: 1 ng/ml compound): 18%
Percent difference (relative to control), neutrophils ([2]; Study 1: 1 ng/ml compound): 21%
Percent difference (relative to control), red blood cells ([2]; Study 1: 1 ng/ml compound): 0%
Percent difference (relative to control), CD34 cells [2, 7]: 33%
Percent difference (relative to control), RBC [2, 7]: 55%
Percent difference (relative to control), monocytes [2, 7]: 9%
Mean Change in O.D. from pretest, Day 4 [3]: 0
Mean Change in O.D. from pretest, Day 14 [3]: 366
Mean Change in O.D. from pretest, Day 14 ([3]; ip): 877 and 515

N[C@@H](Cc1ccc(N(CCCl)CCCl)cc1)C(=O)O [mp, melphalan]
Tumor Size (MOPC-315 myeloma [4]; day 13): 20.4 mm
Tumor Size (MOPC-315 myeloma [4]; day 16): 19.2 mm
Tumor Size (MOPC-315 myeloma [4]; day 20): 17.0 mm
Tumor Size (MOPC-315 myeloma [4]; day 23): 10.2 mm
Tumor Size (MOPC-315 myeloma [4]; day 27): 0 mm
Animals Surviving (MOPC-315 myeloma [4]; day 10): 10
Animals Surviving (MOPC-315 myeloma [4]; day 11): 10
Animals Surviving (MOPC-315 myeloma [4]; day 12): 10
Animals Surviving (MOPC-315 myeloma [4]; day 13): 10
Animals Surviving (MOPC-315 myeloma [4]; day 14): 10
Animals Surviving (MOPC-315 myeloma [4]; day 15): 10
Animals Surviving (MOPC-315 myeloma [4]; day 16): 10
Animals Surviving (MOPC-315 myeloma [4]; day 17): 10
Animals Surviving (MOPC-315 myeloma [4]; day 18): 10
Animals Surviving (MOPC-315 myeloma [4]; day 19): 10
Animals Surviving (MOPC-315 myeloma [4]; day 20): 9
Animals Surviving (MOPC-315 myeloma [4]; day 21): 9
Animals Surviving (MOPC-315 myeloma [4]; day 22): 9
Animals Surviving (MOPC-315 myeloma [4]; day 23): 8
Animals Surviving (MOPC-315 myeloma [4]; day 25): 8
Animals Surviving (MOPC-315 myeloma [4]; day 26): 8
Animals Surviving (MOPC-315 myeloma [4]; day 28): 7
Animals Surviving (MOPC-315 myeloma [4]; day 29): 7
Animals Surviving (MOPC-315 myeloma [4]; day 31): 7
animals in ten cured (MOPC-315 myeloma [5]; mp 1.25 mg/kg alone): one
cure occurred, days after treatment began (MOPC-315 myeloma [5]; mp 1.25 mg/kg alone): 19 days
Animals Surviving (MOPC-315 myeloma [5]; day 10): 10
Animals Surviving (MOPC-315 myeloma [5]; day 11): 8
Animals Surviving (MOPC-315 myeloma [5]; day 12): 5
Animals Surviving (MOPC-315 myeloma [5]; day 13): 4
Animals Surviving (MOPC-315 myeloma [5]; day 14): 3
Animals Surviving (MOPC-315 myeloma [5]; day 15): 3
Animals Surviving (MOPC-315 myeloma [5]; day 16): 3
Animals Surviving (MOPC-315 myeloma [5]; day 17): 3
Animals Surviving (MOPC-315 myeloma [5]; day 18): 3
Animals Surviving (MOPC-315 myeloma [5]; day 19): 3
Animals Surviving (MOPC-315 myeloma [5]; day 20): 3
Animals Surviving (MOPC-315 myeloma [5]; day 21): 3
Animals Surviving (MOPC-315 myeloma [5]; day 22): 3
Animals Surviving (MOPC-315 myeloma [5]; day 23): 3
Animals Surviving (MOPC-315 myeloma [5]; day 25): 3
Animals Surviving (MOPC-315 myeloma [5]; day 26): 3
Animals Surviving (MOPC-315 myeloma [5]; day 27): 3
Animals Surviving (MOPC-315 myeloma [5]; day 29): 3
Animals Surviving (MOPC-315 myeloma [5]; day 31): 1
Mean Tumor Size (MOPC-315 myeloma [5]; day 10): 22.5 mm
Mean Tumor Size (MOPC-315 myeloma [5]; day 14): 19 mm
Mean Tumor Size (MOPC-315 myeloma [5]; day 17): 17 mm
Mean Tumor Size (MOPC-315 myeloma [5]; day 21): 22 mm
Mean Tumor Size (MOPC-315 myeloma [5]; day 29): 28 mm
Animals Surviving (MOPC-315 myeloma [6]; test day 10): 20
Animals Surviving (MOPC-315 myeloma [6]; test day 11): 20
Animals Surviving (MOPC-315 myeloma [6]; test day 12): 20
Animals Surviving (MOPC-315 myeloma [6]; test day 13): 20
Animals Surviving (MOPC-315 myeloma [6]; test day 14): 20
Animals Surviving (MOPC-315 myeloma [6]; test day 15): 20
Animals Surviving (MOPC-315 myeloma [6]; test day 16): 19
Animals Surviving (MOPC-315 myeloma [6]; test day 17): 19
Animals Surviving (MOPC-315 myeloma [6]; test day 18): 19
Animals Surviving (MOPC-315 myeloma [6]; test day 19): 19
Animals Surviving (MOPC-315 myeloma [6]; test day 20): 19
Animals Surviving (MOPC-315 myeloma [6]; test day 21): 15
Animals Surviving (MOPC-315 myeloma [6]; test day 22): 9
Animals Surviving (MOPC-315 myeloma [6]; test day 23): 9
Animals Surviving (MOPC-315 myeloma [6]; test day 25): 7
Animals Surviving (MOPC-315 myeloma [6]; test day 26): 4
Animals Surviving (MOPC-315 myeloma [6]; test day 27): 3
Animals Surviving (MOPC-315 myeloma [6]; test day 29): 2
Animals Surviving (MOPC-315 myeloma [6]; test day 31): 2
day 21 tumor size (MOPC-315 myeloma [6]; mp on day 10, BT none): 25.8 mm
day half are dead (MOPC-315 myeloma [6]; mp on day 10, BT none): 22
cures day 21 (MOPC-315 myeloma [6]; [8]): 2
deaths day 21 (MOPC-315 myeloma [6]; [8]): 5
cures day 21 (MOPC-315 myeloma [6]; mp on day 10, BT none, 20 in group, listed as melphalan): 2/20
day 21 tumor size (MOPC-315 myeloma [6]; mp on day 10, BT none, listed as melphalan): 26 mm
